Earlier results, collected in US11724007B2, “Operating room coating applicator and method” (Ethicon, Inc., priority 2018, dated 2023).

Tested on: S. aureus
Conditions: measured in a suitable growth medium; described by Bhargava, H. et al, American Journal of Infection Control, June 1996

Compound: Oc1cc(Cl)ccc1Oc1ccc(Cl)cc1Cl [triclosan, 2,4,4′-trichloro-2′-hydroxydiphenyl ether]
- minimum inhibitory concentration (MIC) against S. aureus: 0.01 ppm
